According to patent US6809065B2, “Herbicide containing substituted pyrazole derivative as active ingredient” (SDS Biotech K.K., priority 2001, dated 2004):

Columns and labels:
[1] = system: Stellaria media; assay: Upland soil treatment (Test Example 2); format: in vivo; conditions: soil surface treatment next day after sowing, wettable powder, 1 kg active ingredient per hectare, evaluated 21st day after application
Procedure, shortened: (§1)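 Index rating at day 21 after a single pre-emergence soil-surface application, 1 kg a.i./ha, made the day after sowing in upland soil; for crops a lower index indicates higher safety.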

[2] = system: Setaria viridis; assay: Upland soil treatment (Test Example 2); format: in vivo; conditions: soil surface treatment next day after sowing, wettable powder, 1 kg active ingredient per hectare, evaluated 21st day after application
Procedure, shortened: as §1

[3] = system: Chenopodium album; assay: Upland soil treatment (Test Example 2); format: in vivo; conditions: soil surface treatment next day after sowing, wettable powder, 1 kg active ingredient per hectare, evaluated 21st day after application
Procedure, shortened: as §1

[4] = system: Digitaria adscendens; assay: Upland soil treatment (Test Example 2); format: in vivo; conditions: soil surface treatment next day after sowing, wettable powder, 1 kg active ingredient per hectare, evaluated 21st day after application
Procedure, shortened: as §1

[5] = system: rice (Oryza sative, variety: Koshihikari); assay: Paddy field treatment (Test Example 3), crop; format: in vivo, Oryza sativa; conditions: transplanted rice two-leaf period, water surface treatment 10th day after transplantation, 1 kg active ingredient per hectare, evaluated 21st day, lower index = higher safety
Procedure, shortened: (§2)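 Paddy soil in pots was puddled and flooded to 4 cm, weeds were sown, and two-leaf Koshihikari rice was transplanted at 3 cm depth. Ten days after transplanting, wettable powder was applied onto the water surface at 1 kg active ingredient per hectare. Herbicidal effect was index-scored 21 days later.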

[6] = system: Stellaria media; assay: Upland field foliage treatment (Test Example 1); format: in vivo; conditions: foliage treatment 14th day after sowing, wettable powder, 1 kg active ingredient per hectare, evaluated 21st day after application
Procedure, shortened: (§3)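 Foliar spray, 1 kg a.i./ha, wettable powder in water, applied 14 d post-sowing; seeds covered by ~1 cm upland soil. Index scoring at 21 d. Higher index = stronger weed control; for crops, lower index = greater safety.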

[7] = system: Setaria viridis; assay: Upland field foliage treatment (Test Example 1); format: in vivo; conditions: foliage treatment 14th day after sowing, wettable powder, 1 kg active ingredient per hectare, evaluated 21st day after application
Procedure, shortened: as §3

[8] = system: Chenopodium album; assay: Upland field foliage treatment (Test Example 1); format: in vivo; conditions: foliage treatment 14th day after sowing, wettable powder, 1 kg active ingredient per hectare, evaluated 21st day after application
Procedure, shortened: as §3

[9] = system: Digitaria adscendens; assay: Upland field foliage treatment (Test Example 1); format: in vivo; conditions: foliage treatment 14th day after sowing, wettable powder, 1 kg active ingredient per hectare, evaluated 21st day after application
Procedure, shortened: as §3

[10] = system: Echinochloa spp.; assay: Paddy field treatment (Test Example 3); format: in vivo, Echinochloa crusgalli; conditions: paddy pot, submerged 4 cm, dropped on water surface 10th day after transplantation, 1 kg active ingredient per hectare, evaluated 21st day
Procedure, shortened: as §2

[11] = system: soybean (Glycine max); assay: Upland soil treatment (Test Example 2), crop; format: in vivo; conditions: soil surface treatment next day after sowing, 1 kg active ingredient per hectare, evaluated 21st day, lower index = higher safety
Procedure, shortened: as §1

[12] = system: wheat (Triticum aestivum); assay: Upland soil treatment (Test Example 2), crop; format: in vivo; conditions: soil surface treatment next day after sowing, 1 kg active ingredient per hectare, evaluated 21st day, lower index = higher safety
Procedure, shortened: as §1

[13] = system: soybean (Glycine max); assay: Upland field foliage treatment (Test Example 1), crop; format: in vivo; conditions: foliage treatment 14th day after sowing, 1 kg active ingredient per hectare, evaluated 21st day, lower index = higher safety
Procedure, shortened: as §3

[14] = system: wheat (Triticum aestivum); assay: as above; format: in vivo; conditions: foliage treatment 14th day after sowing, 1 kg active ingredient per hectare, evaluated 21st day, lower index = higher safety
Procedure, shortened: as §3

[15] = system: Scirpus juncoides; assay: Paddy field treatment (Test Example 3); format: in vivo; conditions: paddy pot, submerged 4 cm, dropped on water surface 10th day after transplantation, 1 kg active ingredient per hectare, evaluated 21st day
Procedure, shortened: as §2

[16] = system: Ammannia multiflora; assay: Paddy field treatment (Test Example 3); format: in vivo; conditions: paddy pot, submerged 4 cm, dropped on water surface 10th day after transplantation, 1 kg active ingredient per hectare, evaluated 21st day
Procedure, shortened: as §2

[17] = system: Monochoria vaginalis; assay: Paddy field treatment (Test Example 3); format: in vivo; conditions: paddy pot, submerged 4 cm, dropped on water surface 10th day after transplantation, 1 kg active ingredient per hectare, evaluated 21st day
Procedure, shortened: as §2

| Structure (SMILES) | Herbicidal activity Stellaria media [1] | Herbicidal activity Setaria viridis [2] | Herbicidal activity Chenopodium album [3] | Herbicidal activity Digitaria adscendens [4] | Herbicidal activity Oryza sativa [5] | Herbicidal activity Stellaria media [6] | Herbicidal activity Setaria viridis [7] | Herbicidal activity Chenopodium album [8] | Herbicidal activity Digitaria adscendens [9] | Herbicidal activity Echinochloa spp. [10] | Herbicidal activity Glycine max [11] | Herbicidal activity Triticum aestivum [12] | Herbicidal activity Glycine max [13] | Herbicidal activity Triticum aestivum [14] | Herbicidal activity Scirpus juncoides [15] | Herbicidal activity Ammannia multiflora [16] | Herbicidal activity Monochoria vaginalis [17] |
| --- | --- | --- | --- | --- | --- | --- | --- | --- | --- | --- | --- | --- | --- | --- | --- | --- | --- |
| COC=C(Cn1nc(-c2cccc(Cl)c2Cl)c(Cl)c1C)C(=O)OC [Compound 20] | 4 (herbicidal effect of not less than 70% by weight and less than 90% by weight) | 4 (herbicidal effect of not less than 70% by weight and less than 90% by weight) | 5 (herbicidal effect of not less than 90% by weight) | 4 (herbicidal effect of not less than 70% by weight and less than 90% by weight) | 0 (herbicidal effect of not less than 0% by weight and less than 10% by weight) | 5 (herbicidal effect of not less than 90% by weight) | 4 (herbicidal effect of not less than 70% by weight and less than 90% by weight) | 5 (herbicidal effect of not less than 90% by weight) | 4 (herbicidal effect of not less than 70% by weight and less than 90% by weight) | 4 (herbicidal effect of not less than 70% by weight and less than 90% by weight) | 0 (herbicidal effect of not less than 0% by weight and less than 10% by weight) | 0 (herbicidal effect of not less than 0% by weight and less than 10% by weight) | 0 (herbicidal effect of not less than 0% by weight and less than 10% by weight) | 0 (herbicidal effect of not less than 0% by weight and less than 10% by weight) | 4 (herbicidal effect of not less than 70% by weight and less than 90% by weight) | 5 (herbicidal effect of not less than 90% by weight) | 5 (herbicidal effect of not less than 90% by weight) |
| COC=C(Cn1nc(-c2cc(C)ccc2C)c(Br)c1C)C(=O)OC [Compound 28] | 4 (herbicidal effect of not less than 70% by weight and less than 90% by weight) | 4 (herbicidal effect of not less than 70% by weight and less than 90% by weight) | 4 (herbicidal effect of not less than 70% by weight and less than 90% by weight) | 4 (herbicidal effect of not less than 70% by weight and less than 90% by weight) | 1 (herbicidal effect of not less than 10% by weight and less than 30% by weight) | 5 (herbicidal effect of not less than 90% by weight) | 4 (herbicidal effect of not less than 70% by weight and less than 90% by weight) | 5 (herbicidal effect of not less than 90% by weight) | 4 (herbicidal effect of not less than 70% by weight and less than 90% by weight) | 5 (herbicidal effect of not less than 90% by weight) | 0 (herbicidal effect of not less than 0% by weight and less than 10% by weight) | 0 (herbicidal effect of not less than 0% by weight and less than 10% by weight) | 0 (herbicidal effect of not less than 0% by weight and less than 10% by weight) | 0 (herbicidal effect of not less than 0% by weight and less than 10% by weight) | 5 (herbicidal effect of not less than 90% by weight) | 5 (herbicidal effect of not less than 90% by weight) | 5 (herbicidal effect of not less than 90% by weight) |
| COC=C(Cn1nc(-c2ccccc2Cl)cc1C)C(=O)OC [Compound 4] | 4 (herbicidal effect of not less than 70% by weight and less than 90% by weight) | 4 (herbicidal effect of not less than 70% by weight and less than 90% by weight) | 4 (herbicidal effect of not less than 70% by weight and less than 90% by weight) | 4 (herbicidal effect of not less than 70% by weight and less than 90% by weight) | 0 (herbicidal effect of not less than 0% by weight and less than 10% by weight) | 4 (herbicidal effect of not less than 70% by weight and less than 90% by weight) | 4 (herbicidal effect of not less than 70% by weight and less than 90% by weight) | 5 (herbicidal effect of not less than 90% by weight) | 4 (herbicidal effect of not less than 70% by weight and less than 90% by weight) | 4 (herbicidal effect of not less than 70% by weight and less than 90% by weight) | 0 (herbicidal effect of not less than 0% by weight and less than 10% by weight) | 0 (herbicidal effect of not less than 0% by weight and less than 10% by weight) | 0 (herbicidal effect of not less than 0% by weight and less than 10% by weight) | 0 (herbicidal effect of not less than 0% by weight and less than 10% by weight) | 4 (herbicidal effect of not less than 70% by weight and less than 90% by weight) | 3 (herbicidal effect of not less than 50% by weight and less than 70% by weight) | 5 (herbicidal effect of not less than 90% by weight) |
| COC=C(Cn1nc(-c2cccc(Cl)c2Cl)c(Br)c1C)C(=O)OC [Compound 29] | 4 (herbicidal effect of not less than 70% by weight and less than 90% by weight) | 4 (herbicidal effect of not less than 70% by weight and less than 90% by weight) | 4 (herbicidal effect of not less than 70% by weight and less than 90% by weight) | 4 (herbicidal effect of not less than 70% by weight and less than 90% by weight) | 0 (herbicidal effect of not less than 0% by weight and less than 10% by weight) | 5 (herbicidal effect of not less than 90% by weight) | 4 (herbicidal effect of not less than 70% by weight and less than 90% by weight) | 5 (herbicidal effect of not less than 90% by weight) | 5 (herbicidal effect of not less than 90% by weight) | 4 (herbicidal effect of not less than 70% by weight and less than 90% by weight) | 0 (herbicidal effect of not less than 0% by weight and less than 10% by weight) | 0 (herbicidal effect of not less than 0% by weight and less than 10% by weight) | 1 (herbicidal effect of not less than 10% by weight and less than 30% by weight) | 1 (herbicidal effect of not less than 10% by weight and less than 30% by weight) | 4 (herbicidal effect of not less than 70% by weight and less than 90% by weight) | 5 (herbicidal effect of not less than 90% by weight) | 5 (herbicidal effect of not less than 90% by weight) |
